How the values were obtained:
MYC = experiment: qRT-PCR of MYC expression; type: cell-based; conditions: qRT-PCR with specific primers
Experimental: FIGS. 1A-H. Viral protein sequence based cancer drug. (FIG. 1A) Discovery of hijacking transcription machinery in KSHV reactivating cells (Chen et al., J. Virol 2017). […] (FIG. 1B) Reporter assay. KSHV ORF50 overexpression inhibits MYC activation. (FIG. 1C) Chromatin immunoprecipitation with Mass Spectrometry. Proteins inducibly interact with both ORF50 and RNA polII are shown. […] (FIG. 1E) Mapping of interacting domain. GST-pull down was performed to identify NCoA2 binding domains. Purified NCoA2 was made from recombinant baculovirus infected cells and KSHV ORF50 deletion proteins were made in E. coli. Peptides are then generated as TAT-fusion for cell penetration. (FIG. 1F) ChIP-seq and RNA-seq. ChIP-seq was performed to identify NCOA2 target genes in primary effusion lymphoma cells. NCoA2 localization is highly associated with active genes and localizes with RNA pol II at enhancer regions. […] The qRT-PCR was performed with specific primers. (FIG. 1H) Gene set enrichment analyses (GSEA). RNA sequencing was performed with peptide-treated PEL cells. […] (FIG. 1I) The peptide drug. Wt peptide or mutant peptide was incubated in culture media. Forty-eight hours later, live cells were measured by applying MTS. Cell viability was compared with no-treated samples. No treated sample was set as 1.

NU-DUL1 cell = experiment: Cell growth inhibition with deletion peptides; type: cell-based
Text: FIG. 7. Cell growth inhibition with deletion peptides identified key amino acid residue.
BCL2 mutations are frequently seen in B-cell lymphoma and the cell types are often refractory to chemotherapy due to anti-apoptotic phenotype. […] In addition, Essential Leucine residue is identified with the deletion peptides.

BCBL-1 PEL cell line = experiment: PEL xenograft study in NRG mice
Text: We mapped the responsible domain and molecular mechanisms with biochemical and genetic approaches (FIG. 1).
Based on cell killing efficacies of the peptide in vitro, we select two peptides and examine the efficacies to inhibit tumor growth in xenograft models. We use a PEL cell xenograft models. […] Standardized PK/PD studies are completed in rat models at the UCD comprehensive cancer center PK/PD core facility.
Amino acid sequence alignment identified homologous protein sequences in other gamma-herpesvirus protein sequence (The Top table in FIG. 8a, also shown in FIG. 2). Based on their alignment, “non-natural” protein sequences were generated by substituting specific amino acids (The peptides are: Wt d1-1, DS 3-1, DE 3-1, and Mut d1-1 (control peptide) from the top to the bottom in the Bottom Table in FIG. 8a). Those four peptides were used in MTT assays in FIG. 8b to examine the effects on cell growth of BCBL-1 […] effusion lymphoma (PEL) cell line. Also tested are three D-amino acid substitutions first two amino acids and c-terminal amino acid (ST d3-1), in comparison with one D-amino acid peptide (N-terminus) (Wt d3-1).

U937 cell line = experiment: MTT assay, U937; type: cell-based; conditions: U973 monocytic leukemia cell line
Experimental: FIG. 6. Viral and cellular responses to K-Rta peptide; identification of VGN50. (a) Protein sequence alignment. FIG. 6(A) The effect of VGN50 on various cancer cell types. MTT assays were performed with the indicated cell lines treated with various VGN50 concentrations. The O.D. of mock-treated samples were set as 100%, and O.D. from detergent treated cells were set as 0%. Percentage viability+/−SD was calculated for each treatment (N=3 samples/treatment). FIG. 6(B) Viability assay with flow cytometry. Cell viability was measured in triplicate with live/dead staining and the cell killing effects on cancer cells was compared with normal peripheral blood mononuclear cells (PBMC) from three healthy donors. Results are presented as percentage viability+/−SD deviation (N=3 samples/group).
As shown in FIG. 6(a), multiple cancer cell lines were used for MTT assay to evaluate cancer cell killing efficacies of the MBK50 peptide at different concentrations (cell variability studies). […] Importantly, human peripheral blood mononuclear cells (PBMCs) from healthy donors were approximately 10-fold less sensitive to MBK-mediated killing compared to myeloid and lymphoid cancer cell lines (e.g., THP-1 and BCBL-1) as assessed by flow cytometry after live/dead staining (FIG. 6(b)). […]

MYC target genes = experiment: Total RNA sequencing with Gene Set Enrichment Analyses; type: cell-based; conditions: total RNA-sequence 24 hours post-drug treatment, PEL cells
Experimental: FIGS. 1A-H. Viral protein sequence based cancer drug. (FIG. 1A) Discovery of hijacking transcription machinery in KSHV reactivating cells (Chen et al., J. Virol 2017). […] (FIG. 1B) Reporter assay. KSHV ORF50 overexpression inhibits MYC activation. (FIG. 1C) Chromatin immunoprecipitation with Mass Spectrometry. Proteins inducibly interact with both ORF50 and RNA polII are shown. […] (FIG. 1E) Mapping of interacting domain. GST-pull down was performed to identify NCoA2 binding domains. Purified NCoA2 was made from recombinant baculovirus infected cells and KSHV ORF50 deletion proteins were made in E. coli. Peptides are then generated as TAT-fusion for cell penetration. (FIG. 1F) ChIP-seq and RNA-seq. ChIP-seq was performed to identify NCOA2 target genes in primary effusion lymphoma cells. NCoA2 localization is highly associated with active genes and localizes with RNA pol II at enhancer regions. […] The qRT-PCR was performed with specific primers. (FIG. 1H) Gene set enrichment analyses (GSEA). […] Forty-eight hours later, live cells were measured by applying MTS. […]
Thiol(SH)-linked alkylation for the metabolic sequencing of RNA (SLAM seq), an orthogonal-chemistry-based RNA sequencing technology detects 4-thiouridine (s4U) incorporation in RNA species at single-nucleotide resolution. […] IGV viewer was used to visualize sequence reads at MYC region (Chr. 8). […]

CD19+ B cells = experiment: CD19+ B cell response to sCD40L, live/dead staining; type: cell-based; conditions: 32 μM, sCD40L 1 μg/ml, 2 days
Experimental: CD19^+ B cells were isolated with magnetic beads from PBMC of a healthy donor (n=1). Cells were washed and cultured at 1×10^6/ml in a 96 well plate (200 μl/well in triplicates) without or with sCD40L (1 μg/ml) in the presence of MBK50 (16 or 32 μM) or mutant peptide (32 μM) for 2 days. Live cells were determined as shown in FIG. 3 left panel using live/dead-red staining (live cells are gated as red-staining negative population). […] The peptide drug targets actively replicating B-cells that is consistent with MBK50 targeting MYC.

LSSILQGLYQLDT [MBK50]
MYC expression (MYC): Down modulation | activity on BCL2 negative lymphoma cell lines (NU-DUL1 cell): still works | efficacy to target PEL in xenograft (BCBL-1 PEL cell line): demonstrated efficacies | toxicity to the host mice (BCBL-1 PEL cell line; xenograft studies): without any measurable toxicities | sensitivity to cell killing (U937 cell line): sensitive | GSEA of MYC target genes (MYC target genes): highest enrichment scores with zero false discovery rate | GSEA of MYC target genes (MYC target genes; listed as Wt-peptide): enrichment of MYC-target gene down-regulation | live cell % (CD19+ B cells): reduced | total cell numbers (CD19+ B cells): increased
